Measurements published in patent US10391148B2, “Method of prevention and inhibition of preterm labor” (Wayne State University, priority 2016, dated 2019).

Legend:
Assay type in all cases: in vivo, mouse
[1] = tested on: pregnant female μMT mice (LPS-induced PTL); assay: LPS-induced preterm labor in pregnant μMT mice: preterm delivery and neonatal/fetal mortality; conditions: read on gd 17.5, fPIBF1 1 μg (800 ng in method), cPIBF1 300 ng, vs PBS
Experimental: (§1) Six to ten-week old virgin female C57BL/6 (WT) or μMT mice were mated with male Balb/c mice. Female mice were examined daily in the early morning for the presence of a vaginal plug, which denoted gestational day (gd) 0.5. In the late morning of gd 16.5, pregnant female mice were intraperitoneally administered with 200 μl sterile PBS or 200 μl sterile PBS containing 0.5, 2.5, 5, 10 or 20 μg lipopolysaccharides (LPS) from Salmonella enterica serotype typhimurium (Sigma-Aldrich L6143). The various doses of LPS were given to the mice randomly. In some experiments, splenic B cells of 5 to 8-week old virgin female WT or IL-10−/− mice were purified using a mouse resting B cell negative isolation kit (Miltenyi Biotec 130-090-862) to 94% to 99% purity as determined by CD19 staining. 107 purified B cells were adoptively transferred in 200 μl sterile PBS into pregnant female μMT mice on gd 14.5 prior to LPS administration on gd 16.5. In some other experiments, 200 μl sterile PBS or 200 μl sterile PBS containing 800 ng recombinant full-length PIBF1 (fPIBF1) (aa 1-757 (SEQ ID NO:11, with an N-terminal glutathione-S-transferase (GST) tag of 232 amino acids, Abnova H00010464-P01) or 300 ng of a recombinant C-terminal fragment of PIBF1 (cPIBF1) (aa 660-755 (SEQ ID NO:12), with an N-terminal glutathione-S-transferase (GST) tag of 232 amino acids, Abnova H00010464-Q01) was intravenously administered to pregnant female μMT mice on gd 16.5 three hours prior to intraperitoneal LPS administration. 24 hours after LPS administration, female mice were examined for delivery and death of delivered pups if delivery occurred. They were then sacrificed for the examination of neonatal/fetal mortality, which was calculated as the total number of dead delivered pups and dead fetuses divided by the total number of implantation sites. Uteri were collected, briefly washed in PBS and processed for RNA and protein extraction or flow cytometry. The people performing the analysis were not blinded to the genotype or treatment of the mice.
The sample size was calculated based on the effect size derived from preliminary data at 5% significance level and 80% power using the software G*Power 3.1. Sample availability exceeded the estimated sample size. Results are expressed as mean±S.E.M. Percentage data were subjected to square root transformation prior to statistical analysis to verify test assumptions of equal variance. Statistical difference in the rate of PTL between different strains of mice or different treatment groups was assessed by Fisher's exact test. Statistical difference in neonatal/fetal mortality was assessed by Mann-Whitney U test. For flow cytometry and qRT-PCR data, Shapiro-Wilk test was used to determine the normality of the data. Statistical significance was assessed by Student's t-test for normally distributed data and Mann-Whitney U test for non-normally distributed data. p values <0.05 were considered statistically significant.

[2] = tested on: uterine proinflammatory mediators (Tnf, Il6, Mmp9, Cxcl2, Cxcl3, Cxcl5, Il1b, Cxcl10, Ccl3, Cxcl1, Ccl2, Cxcl9 transcripts); assay: qRT-PCR of proinflammatory mediator transcripts in uterine tissues of LPS-challenged μMT mice; conditions: 24 hours after intravenous fPIBF1 and 5 μg intraperitoneal LPS, fold change of transcripts
Experimental: Six to ten-week old virgin female C57BL/6 (WT) or μMT mice were mated with male Balb/c mice. Female mice were examined daily in the early morning for the presence of a vaginal plug, which denoted gestational day (gd) 0.5. In the late morning of gd 16.5, pregnant female mice were intraperitoneally administered with 200 μl sterile PBS or 200 μl sterile PBS containing 0.5, 2.5, 5, 10 or 20 μg lipopolysaccharides (LPS) from Salmonella enterica serotype typhimurium (Sigma-Aldrich L6143). The various doses of LPS were given to the mice randomly. In some experiments, splenic B cells of 5 to 8-week old virgin female WT or IL-10−/− mice were purified using a mouse resting B cell negative isolation kit (Miltenyi Biotec 130-090-862) to 94% to 99% purity as determined by CD19 staining. 107 purified B cells were adoptively transferred in 200 μl sterile PBS into pregnant female μMT mice on gd 14.5 prior to LPS administration on gd 16.5. […] They were then sacrificed for the examination of neonatal/fetal mortality, which was calculated as the total number of dead delivered pups and dead fetuses divided by the total number of implantation sites. […]

[3] = tested on: CD11b+Ly-6G+ neutrophils in uterine tissues; assay: Flow cytometry of uterine neutrophils of LPS-challenged μMT mice; conditions: vs PBS; for uterine neutrophil activation (CD11b, CD18, iNOS, ICAM-1, MHC-II, CD62L expression): μMT mice 24 hours after intravenous protein and intraperitoneal LPS
Experimental: as §1, with “Uteri were collected, briefly washed in PBS and processed for RNA and protein extraction or flow cytometry. The people performing the analysis were not blinded to the genotype or treatment of the mice.” left out
Cells were incubated with an Fc blocking reagent and stained at 4° C. with antibodies to various cell surface antigens (Tables 4, 5). […] Events were acquired on an LSR II cytometer (BD Biosciences) and analyzed by FlowJo (Tree Star). […]

Q: Which neonatal/fetal mortality ([1]; protein intravenous on gd 16.5 before 5 μg intraperitoneal LPS) does the source give for “fPIBF1: recombinant full-length PIBF1, aa 1-757, SEQ ID NO:11, N-terminal GST tag of 232 amino acids, Abnova H00010464-P01” here?
A: significantly reduced

Q: And the “rate of preterm delivery (PTL)” value ([1]; protein intravenous on gd 16.5 three hours before 5 μg intraperitoneal LPS)?
A: significantly reduced

Q: What about the “uterine induction of proinflammatory mediators (uterine inflammation)” value [2] of the same substance?
A: suppressed

Q: What about the “uterine induction of proinflammatory mediators (uterine inflammation)” value ([2]; listed as full-length PIBF1) of the same substance?
A: reduces

Q: And the “neutrophil infiltration into the uterus (frequency of CD11b+Ly-6G+ neutrophils in CD45+ cells)” value ([3]; gd 17.5 μMT mice after intravenous protein and intraperitoneal LPS on gd 16.5)?
A: inhibited

Q: What about the “uterine neutrophil activation (CD11b, CD18, iNOS, ICAM-1, MHC-II, CD62L expression)” value [3] of the same substance?
A: reduced activation

Q: And the “uterine neutrophil activation (CD11b, CD18, iNOS, ICAM-1, MHC-II, CD62L expression)” value ([3]; listed as full-length PIBF1)?
A: reduces
